Data published in patent US20080234373A1, “Compound Useful For the Prevention and Treatment of Left Ventricular Hypertrophy in Dialysed Patients” (SIGMA-TAU INDUSTRIE FARMACEUTICHE RIUNITE S.P.A., priority 2005, published 2008).

Legend:
[1] = system: left ventricular (LV) muscle mass and LV systolic and diastolic function; conditions: 58 patients with primary glomerulonephritis and moderate chronic renal failure; cited from earlier work
[2] = system: left ventricular hypertrophy (LVH) in ESRD dialysed patients; test: Clinical trial of propionyl L-carnitine in ESRD patients on dialysis (multicentre, randomized, double-blind, placebo-controlled; echocardiography); type: in vivo
Experimental: A clinical trial (multicentre, parallel, randomized, double-blind, dose-ranging placebo-controlled study in 300 patients) useful for evaluating both preventive and/or curative effect of the treatment with propionyl L-carnitine (3 and 6 mg/kg given intravenously three times a week at the end of the hemodyalisis session for 26 weeks) has been done.
Inclusion Criteria • 1) male or female out-patients aged >18 years, suffering from ESRD on bicarbonate dialysis three times a week; • 2) patients who have reached a certain degree of dialytic stability (at least since six months on dialysis), so that the variability due to the progressive patient adaptation of the therapeutic treatment is controlled, presenting no clinical signs of hydric overload at the end of dialysis; • 3) patients showing a degree of cardiac deterioration defined as inter-ventricular septum and left ventricular wall thickness >11 mm; • 4) patients with left ventricular ejection fraction >40%; • 5) patients under stable pharmacological treatment for at least three months; • 6) absence of acute ischaemic events (effort angina, unstable angina, AMI) during the last three months; • 7) presence of an adequate acoustic window and a good echogenicity; • 8) capacity of co-operating with the administered questionnaire. […]

| Structure (SMILES) | LV ejection fraction, early and late transmittal flow velocities and early to late LV inflow velocities ratio [1] | signs of LVH (a)-(c): left-ventricular septum and posterior wall thickness, end-systolic and end-diastolic size and volume, ejection fraction ([2]; 3 and 6 mg/kg intravenously three times a week at end of hemodialysis for 26 weeks, preliminary ANOVA analysis, treated versus control group) | progression of the signs of LVH (a)-(c) respect to base line ([2]; 3 and 6 mg/kg intravenously three times a week for 26 weeks, T26 vs T0 in treated group, control group worsened) |
| --- | --- | --- | --- |
| C[C@H](CS)C(=O)N1CCC[C@H]1C(=O)O [captopril] | not significantly affected | – | – |
| CCOC(=O)[C@H](CCc1ccccc1)N[C@@H](C)C(=O)N1CCC[C@H]1C(=O)O [enalapril] | not significantly affected | – | – |
| CCC(=O)O[C@H](CC(=O)[O-])C[N+](C)(C)C [propionyl L-carnitine] | – | useful for treating the signs of LVH | able to reduce the progression of the signs of LVH |
